# Results taken from patent publication US20080051454A1, “Compositions and methods for transient receptor potential vanilloid (TRPV) channel mediated treatments” (The Board of Trustees Operating Michigan State University, priority 2006, published 2008).
# Experiments:
# [1] = test system: renal tissues; experiment: Capsaicin-induced CGRP release from renal tissues; set-up: species or system rat; details: capsazepine 10 mmol/l; all groups
# From the text: N¼5,_P<0.05 versus vehicle, capsazepine plus capsaicin and capsazepine; †P<0.001 versus capsaicin of control rats with a normal sodium diet (Con-NS) and capsaicin of control rats with a high sodium diet (Con-HS). Vehicle; capsaicin; capsazepine and capsaicin; capsazepine.
# To examine renal sensory nerve function, renal CGRP release after stimulation of the renal sensory nerves with capsaicin was examined.
# [2] = test system: WT and TRPV1−/− hearts; experiment: SP and CGRP release from hearts subjected to PC (radioimmunoassay); set-up: species or system mouse; details: CAPZ 10^−6 M; in WT but not TRPV1−/− hearts
# Method: Additional WT and TRPV1−/−hearts were treated the same as that of the PC group except that CAPZ (10^−6 M) was added to the solution. In the normal control group, WT and TRPV1−/−hearts were treated the same as that of the PC group except no deprivation of oxygen and glucose. The samples were purified and analyzed by radioimmunoassay. The assay was performed as recommended by the supplier. Commercially available rat CGRP and SP radioimmunoassay kits (Peninsula Laboratories Inc.) were used for determination of SP and CGRP release which was normalized by the heart weight.
smiles,measurement,setting,value
"Oc1cc2c(cc1O)CN(C(=S)NCCc1ccc(Cl)cc1)CCC2 [CAPZ, N-[2-(4-Chlorophenyl)ethyl]-1,3,4,5-tetrahydro-7,8-dihydroxy-2H-2-benzazepine-2-carbothioamide]",effect on capsaicin-stimulated CGRP release,[1],blocked
same,CGRP release from hearts subjected to PC,[2],attenuated
same,SP release from hearts subjected to PC,[2],attenuated
